# Measurements published in US12116388B2, “Amylin receptor agonists” (Novo Nordisk A/S, priority 2022, dated 2024).
# Starred links: 1 amine or outer side, 2 acyl side, 3 side chain; linkers in the order of their positions; H or OH if unused. Residues, ends and D or L forms follow the SMILES beside them. *: point of attachment. C18 diacid = O=C(O)CCCCCCCCCCCCCCCCC(=O)*; γGlu = O=C(O)[C@H](CCC(=O)[*:2])N[*:1]
# Columns and labels:
# [1] = target: T1, human amylin receptor (hAMYR3) (Homo sapiens, UniProt O60896+P30988); experiment: Human amylin receptor (hAMYR3) in vitro potency assay, CRE-luciferase reporter in BHK cells; type: cell-based; details: BHK hAMYR3/CRE-Luc cells, 3 hours incubation, assay buffer with 1% ovalbumin
# T1 construct: host or cells: BHK (Baby Hamster Kidney), Hollex-1 cell line further transfected with RAMP3
# T1 sequence (P30988 25-474): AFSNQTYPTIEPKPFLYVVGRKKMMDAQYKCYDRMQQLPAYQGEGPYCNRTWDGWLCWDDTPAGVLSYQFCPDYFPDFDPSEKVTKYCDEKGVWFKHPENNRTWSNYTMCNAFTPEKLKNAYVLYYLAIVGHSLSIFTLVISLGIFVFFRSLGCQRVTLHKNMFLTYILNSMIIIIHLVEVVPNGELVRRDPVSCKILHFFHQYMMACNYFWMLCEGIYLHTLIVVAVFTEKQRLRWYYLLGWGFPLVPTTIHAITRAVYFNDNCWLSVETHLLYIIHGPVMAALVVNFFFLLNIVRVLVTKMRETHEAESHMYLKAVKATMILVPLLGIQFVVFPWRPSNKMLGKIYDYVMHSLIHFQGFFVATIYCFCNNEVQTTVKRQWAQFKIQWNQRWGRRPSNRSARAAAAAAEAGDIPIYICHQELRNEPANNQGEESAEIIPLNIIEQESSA
# T1 sequence (O60896 24-148): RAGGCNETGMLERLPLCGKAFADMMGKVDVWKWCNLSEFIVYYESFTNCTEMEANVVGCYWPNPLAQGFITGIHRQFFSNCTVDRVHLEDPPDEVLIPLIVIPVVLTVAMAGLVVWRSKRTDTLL
# Outline: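 BHK cells stably expressing human calcitonin receptor (a) plus RAMP3 and a CRE-luciferase reporter, seeded overnight, then exposed to 7-point 7-fold dilutions (often from ~10 nM) in DMEM/HEPES buffer with 1% ovalbumin for 3 h at 37 °C. Luciferase luminescence read after SteadyLite Plus addition.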
# [2] = Oral pharmacokinetic profiles in Beagle dogs (SNAC tablets); type: in vivo; details: oral tablet: 3 mg compound, 300 mg SNAC, 7.7 mg magnesium stearate; for half-life: male, dog, plasma, read-out: T½ (converted)
# Outline: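 Male Beagle dogs, fasted overnight, received an oral immediate-release tablet of 3 mg compound with 300 mg SNAC, 10 min after ~3.2 nmol/kg subcutaneous glucagon. EDTA plasma sampled up to 288 h post-dose; concentrations measured by ethanol protein precipitation and LC-MS for pharmacokinetic parameters.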
smiles,measurement,setting,value
CC[C@H](C)[C@H](NC(=O)[C@H](C)NC(=O)CNC(=O)[C@H](Cc1ccccc1)NC(=O)[C@@H]1CCCN1C(=O)[C@H](CC(=O)O)NC(=O)[C@H](CO)NC(=O)[C@H](CO)NC(=O)[C@H](Cc1c[nH]cn1)NC(=O)[C@H](Cc1c[nH]cn1)NC(=O)[C@H](CC(C)C)NC(=O)[C@H](Cc1ccccc1)NC(=O)[C@H](CCC(=O)O)NC(=O)[C@H](C)NC(=O)[C@H](CC(C)C)NC(=O)[C@H](CCCNC(=N)N)NC(=O)[C@H](CCC(N)=O)NC(=O)[C@@H](NC(=O)[C@H](CCC(N)=O)NC(=O)[C@H](C)NC(=O)[C@@H](NC(=O)[C@H](CO)NC(=O)[C@H](CC(C)C)NC(=O)[C@H](CCC(N)=O)NC(=O)[C@H](CO)NC(=O)[C@H](C)NC(=O)CC[C@H](NC(=O)CCCCCCCCCCCCCCCCC(=O)O)C(=O)O)[C@@H](C)O)[C@@H](C)O)C(=O)N1CCC[C@H]1C(=O)N[C@@H](CO)C(=O)N[C@@H](CO)C(=O)N[C@H](C(=O)N[C@@H](CC(=O)O)C(=O)N[C@H](C(=O)NCC(=O)N1CCC[C@H]1C(=O)N[C@@H](CC(=O)O)C(=O)N[C@H](C(=O)N1CCC[C@H]1C(N)=O)[C@@H](C)O)C(C)C)[C@@H](C)O [Compound 24] ({C18 diacid-γGlu}-ASQLSTAQTQRLAEFLHHSSDPFGAIPSSTDVGPDTP-NH2),EC50,[1],1.49 pM
same,half-life,[2],120 h
same,AUC/D,[2],31.21 kg·h/L
same,Cmax/D,[2],0.36 kg/L
"CC[C@H](C)[C@H](NC(=O)[C@H](C)NC(=O)CNC(=O)[C@H](Cc1ccccc1)NC(=O)[C@@H]1CCCN1C(=O)[C@H](CC(=O)O)NC(=O)[C@H](CO)NC(=O)[C@H](CO)NC(=O)[C@H](Cc1c[nH]cn1)NC(=O)[C@H](Cc1c[nH]cn1)NC(=O)[C@H](CC(C)C)NC(=O)[C@H](Cc1ccccc1)NC(=O)[C@H](CCC(=O)O)NC(=O)[C@H](C)NC(=O)[C@H](CC(C)C)NC(=O)[C@H](CCCNC(=N)N)NC(=O)[C@H](C)NC(=O)[C@@H](NC(=O)[C@H](CCC(N)=O)NC(=O)[C@H](C)NC(=O)[C@@H](NC(=O)[C@H](CO)NC(=O)[C@H](CC(C)C)NC(=O)[C@H](Cc1c[nH]cn1)NC(=O)[C@H](CO)NC(=O)[C@H](C)NC(=O)CC[C@H](NC(=O)CCCCCCCCCCCCCCCCC(=O)O)C(=O)O)[C@@H](C)O)[C@@H](C)O)C(=O)N1CCC[C@H]1C(=O)N[C@@H](CO)C(=O)N[C@@H](CO)C(=O)N[C@H](C(=O)N[C@@H](CC(=O)O)C(=O)N[C@H](C(=O)NCC(=O)N1CCC[C@H]1C(=O)N[C@@H](CC(=O)O)C(=O)N[C@H](C(=O)N1CCC[C@H]1C(N)=O)[C@@H](C)O)C(C)C)[C@@H](C)O [Compound 25, N^1-[(4S)-4-carboxy-4-(17-carboxyheptadecanoylamino)butanoyl]-[Ala1,Ser2,His3,Leu4,Ser5,Ala7,Gln8,Ala10,Glu14,His17,Asp21,Pro22,Pro27,Asp31,Pro34,Asp35,Pro37]-human amylin] ({C18 diacid-γGlu}-ASHLSTAQTARLAEFLHHSSDPFGAIPSSTDVGPDTP-NH2)",EC50,[1],1.27 pM
same,half-life,[2],152 h
same,AUC/D,[2],24.15 kg·h/L
same,Cmax/D,[2],0.34 kg/L
